Reference: patent publication US20260317324A1, “BIFUNCTIONAL COMPOUNDS FOR DEGRADING BRAF VIA UBIQUITIN PROTEOSOME PATHWAY” (Nurix Therapeutics, Inc., priority 2023, published 2026)

How the values were obtained:
Type in all cases: cell-based
[1] = target: T1, BRAF V600E (Homo sapiens, UniProt P15056, V600E); experiment: BRAF HiBiT degradation assay, C-terminal HiBiT-tagged BRAF V600E A375 cells (clone 1F10), Nano-Glo HiBiT Lytic assay; conditions: A375 (BRAF V600E); for DC50: DC50 at 50%: fitted conc. at Y=50; for Dmax: A-375, percentage protein degraded at maximal compound effect relative to DMSO
T1 construct: endogenous C-terminal HiBiT fusion tag on BRAF V600E allele; endogenous in cells; host or cells: A375 clone 1F10 (CRISPR-Cas9 knock-in of the HiBiT tag; parental A375 from ATCC)
T1 sequence (P15056 whole entry V600E, the tested form may be a part): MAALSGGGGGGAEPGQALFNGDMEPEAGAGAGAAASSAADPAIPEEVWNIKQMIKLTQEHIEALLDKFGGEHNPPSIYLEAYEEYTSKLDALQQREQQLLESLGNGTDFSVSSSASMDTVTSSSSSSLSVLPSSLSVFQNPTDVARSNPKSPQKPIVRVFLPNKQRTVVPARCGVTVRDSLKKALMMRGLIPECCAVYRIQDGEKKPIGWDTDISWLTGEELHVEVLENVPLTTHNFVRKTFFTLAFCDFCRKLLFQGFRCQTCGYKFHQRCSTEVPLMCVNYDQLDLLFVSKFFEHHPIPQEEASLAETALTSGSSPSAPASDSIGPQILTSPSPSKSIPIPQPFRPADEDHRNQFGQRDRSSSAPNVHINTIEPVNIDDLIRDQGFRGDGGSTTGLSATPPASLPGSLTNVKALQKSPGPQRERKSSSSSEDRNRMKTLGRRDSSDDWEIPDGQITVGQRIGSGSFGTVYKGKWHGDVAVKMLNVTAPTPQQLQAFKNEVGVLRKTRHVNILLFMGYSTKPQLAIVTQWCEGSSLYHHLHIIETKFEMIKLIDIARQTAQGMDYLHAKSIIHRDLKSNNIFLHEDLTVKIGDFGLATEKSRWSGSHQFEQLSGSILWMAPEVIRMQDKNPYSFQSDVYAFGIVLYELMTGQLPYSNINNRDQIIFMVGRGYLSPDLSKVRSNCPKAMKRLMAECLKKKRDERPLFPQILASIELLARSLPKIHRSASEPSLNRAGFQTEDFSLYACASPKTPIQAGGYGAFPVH
In short: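 Endogenous BRAF V600E-HiBiT A375 (1F10), 10,000 cells/well, 24 h preculture; cpd 11-pt, 1 μM–0.01 nM half-log, n=2, 0.2% DMSO; HiBiT lytic detection 10 min RT; DC50 = fitted conc at Y=50; Obs. Dmax vs DMSO.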

[2] = target: T2, BRAF G466V (Homo sapiens, UniProt P15056, G466V); experiment: BRAF HiBiT degradation assay, C-terminal HiBiT-tagged BRAF G466V overexpressed in HCT-116 BRAF−/− cells (clone 8), Nano-Glo HiBiT Lytic assay; conditions: BRAF G466V; for DC50: DC50 at 50%: fitted conc. at Y=50; for Dmax: HCT-116, percentage protein degraded at maximal compound effect relative to DMSO
T2 construct: Horizon Discovery (HCT-116 BRAF−/− cells); host or cells: HCT-116 BRAF−/− cells, clone 8, lentiviral transduction
T2 sequence (P15056 whole entry G466V): as the sequence (P15056 whole entry V600E, the tested form may be a part) above, with G466V, E600V counted along it
In short: (§1)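 Luminescence from the lytic HiBiT reagent, read after 10 min at room temperature, measured tagged BRAF remaining in lentivirally transduced HCT-116 BRAF−/− cells. Compounds were tested from 1 μM to 0.01 nM in half-log steps at 0.2% DMSO. DC50 values were fitted at 50% remaining.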

[3] = target: T3, BRAF G469A (Homo sapiens, UniProt P15056, G469A); experiment: BRAF HiBiT degradation assay, C-terminal HiBiT-tagged BRAF G469A overexpressed in HCT-116 BRAF−/− cells (clone 34), Nano-Glo HiBiT Lytic assay; conditions: Class 2, BRAF G469A; for DC50: DC50 at 50%: fitted conc. at Y=50; for Dmax: HCT-116, percentage protein degraded at maximal compound effect relative to DMSO
T3 construct: Horizon Discovery (HCT-116 BRAF−/− cells); host or cells: HCT-116 BRAF−/− cells, clone 34, lentiviral transduction
T3 sequence (P15056 whole entry G469A): as the sequence (P15056 whole entry V600E, the tested form may be a part) above, with G469A, E600V counted along it
In short: as §1

[4] = target: T4, BRAF D594G (Homo sapiens, UniProt P15056, D594G); experiment: BRAF HiBiT degradation assay, C-terminal HiBiT-tagged BRAF D594G overexpressed in HCT-116 BRAF−/− cells (clone 63), Nano-Glo HiBiT Lytic assay; conditions: BRAF D594G; for DC50: DC50 at 50%: fitted conc. at Y=50; for Dmax: HCT-116, percentage protein degraded at maximal compound effect relative to DMSO
T4 construct: Horizon Discovery (HCT-116 BRAF−/− cells); host or cells: HCT-116 BRAF−/− cells, clone 63, lentiviral transduction
T4 sequence (P15056 whole entry D594G): as the sequence (P15056 whole entry V600E, the tested form may be a part) above, with D594G, E600V counted along it
In short: as §1

SMILES	DC50 [1] [nM]	Dmax [1] [%]	DC50 [2] [nM]	Dmax [2] [%]	DC50 [3] [nM]	Dmax [3] [%]	DC50 [4] [nM]	Dmax [4] [%]
CCCS(=O)(=O)Nc1cccc(-c2cn(C3CCN(C(=O)C4CCN(C(=O)C5CCN(c6ccc(C7CCC(=O)NC7=O)cn6)CC5)CC4)CC3)nc2-c2ccncc2)c1F (racemic) [Compound 7, Rac-N-[3-(1-{1-[1-(1-{5-[(3R)-2,6-dioxopiperidin-3-yl]pyridin-2-yl}piperidine-4-carbonyl)piperidine-4-carbonyl]piperidin-4-yl}-3-(pyridin-4-yl)-1H-pyrazol-4-yl)-2-fluorophenyl]propane-1-sulfonamide]	10 to 50	> 70	50 to 500	30 to 70	> 500	30 to 70	> 500	30 to 70
CCCS(=O)(=O)Nc1cccc(-c2cn(-c3ccc(N4CCN(CC5CCN(c6ccc(C7CCC(=O)NC7=O)c(F)c6)CC5)CC4)cc3)nc2-c2ccncc2)c1F (racemic) [Compound 19, Rac-N-{3-[1-(4-{4-[(1-{4-[(3R)-2,6-dioxopiperidin-3-yl]-3-fluorophenyl}piperidin-4-yl)methyl]piperazin-1-yl}phenyl)-3-(pyridin-4-yl)-1H-pyrazol-4-yl]-2-fluorophenyl}propane-1-sulfonamide]	10 to 50	> 70	10 to 50	30 to 70	> 500	30 to 70	10 to 50	30 to 70
CCCS(=O)(=O)Nc1cccc(-c2cn(-c3ccc(N4CCN(CC5CCN(c6ccc(C7CCC(=O)NC7=O)cc6)CC5)CC4)cc3)nc2-c2ccncc2)c1F (racemic) [Compound 21, Rac-N-{3-[1-(4-{4-[(1-{4-[(3R)-2,6-dioxopiperidin-3-yl]phenyl}piperidin-4-yl)methyl]piperazin-1-yl}phenyl)-3-(pyridin-4-yl)-1H-pyrazol-4-yl]-2-fluorophenyl}propane-1-sulfonamide]	10 to 50	> 70	10 to 50	30 to 70	> 500	30 to 70	> 500	30 to 70
CCCS(=O)(=O)Nc1cccc(-c2cn(-c3ccc(C4CCN(CC5CCN(c6ccc(C7CCC(=O)NC7=O)c(F)c6)CC5)CC4)cc3)nc2-c2ccncc2)c1F (racemic) [Compound 23, Rac-N-{3-[1-(4-{1-[(1-{4-[(3R)-2,6-dioxopiperidin-3-yl]-3-fluorophenyl}piperidin-4-yl)methyl]piperidin-4-yl}phenyl)-3-(pyridin-4-yl)-1H-pyrazol-4-yl]-2-fluorophenyl}propane-1-sulfonamide]	10 to 50	> 70	10 to 50	30 to 70	> 500	< 30	> 500	30 to 70
CCCS(=O)(=O)Nc1cccc(-c2cn(-c3ccc(C4CCN(CC5CCN(c6ccc(C7CCC(=O)NC7=O)cn6)CC5)CC4)cc3)nc2-c2ccncc2)c1F (racemic) [Compound 24, Rac-N-{3-[1-(4-{1-[(1-{5-[(3R)-2,6-dioxopiperidin-3-yl]pyridin-2-yl}piperidin-4-yl)methyl]piperidin-4-yl}phenyl)-3-(pyridin-4-yl)-1H-pyrazol-4-yl]-2-fluorophenyl}propane-1-sulfonamide]	10 to 50	> 70	10 to 50	30 to 70	> 500	< 30	> 500	30 to 70
CCN(C)S(=O)(=O)Nc1cccc(-c2nc(C(C)(C)C)sc2-c2ccnc(Nc3ccc(N4CCN(C(=O)CN5CCc6cc(C7CCC(=O)NC7=O)ccc6C5)CC4)c(F)c3)n2)c1F (racemic) [Compound 28, Rac-(3R)-3-[2-(2-{4-[4-({4-[2-tert-butyl-4-(3-{[ethyl(methyl)sulfamoyl]amino}-2-fluorophenyl)-1,3-thiazol-5-yl]pyrimidin-2-yl}amino)-2-fluorophenyl]piperazin-1-yl}-2-oxoethyl)-1,2,3,4-tetrahydroisoquinolin-6-yl]piperidine-2,6-dione]	< 10	> 70	< 10	30 to 70	10 to 50	30 to 70	10 to 50	30 to 70

Now from value to compound:

DC50 [1] [nM]	Dmax [1] [%]	DC50 [2] [nM]	Dmax [2] [%]	DC50 [3] [nM]	Dmax [3] [%]	DC50 [4] [nM]	Dmax [4] [%]	SMILES
10 to 50	> 70	> 500	30 to 70	> 500	30 to 70	> 500	30 to 70	CCCS(=O)(=O)Nc1cccc(-c2cn(C3CCN(C(=O)C4(C)CCN(C(=O)C5CCN(c6ccc(C7CCC(=O)NC7=O)cn6)CC5)CC4)CC3)nc2-c2ccncc2)c1F (racemic) [Compound 8, Rac-N-[3-(1-{1-[1-(1-{5-[(3R)-2,6-dioxopiperidin-3-yl]pyridin-2-yl}piperidine-4-carbonyl)-4-methylpiperidine-4-carbonyl]piperidin-4-yl}-3-(pyridin-4-yl)-1H-pyrazol-4-yl)-2-fluorophenyl]propane-1-sulfonamide]
10 to 50	> 70	10 to 50	30 to 70	> 500	30 to 70	10 to 50	30 to 70	CCCS(=O)(=O)Nc1cccc(-c2cn(-c3ccc(N4CCN(CC5CCN(c6ccc(C7CCC(=O)NC7=O)cc6F)CC5)CC4)cc3)nc2-c2ccncc2)c1F (racemic) [Compound 18, Rac-N-{3-[1-(4-{4-[(1-{4-[(3R)-2,6-dioxopiperidin-3-yl]-2-fluorophenyl}piperidin-4-yl)methyl]piperazin-1-yl}phenyl)-3-(pyridin-4-yl)-1H-pyrazol-4-yl]-2-fluorophenyl}propane-1-sulfonamide]
10 to 50	> 70	50 to 500	30 to 70	> 500	< 30	> 500	30 to 70	CCCS(=O)(=O)Nc1cccc(-c2cn(-c3ccc(C4CCN(CC5CCN(c6ccc(C7CCC(=O)NC7=O)cc6F)CC5)CC4)cc3)nc2-c2ccncc2)c1F (racemic) [Compound 22, Rac-N-{3-[1-(4-{1-[(1-{4-[(3R)-2,6-dioxopiperidin-3-yl]-2-fluorophenyl}piperidin-4-yl)methyl]piperidin-4-yl}phenyl)-3-(pyridin-4-yl)-1H-pyrazol-4-yl]-2-fluorophenyl}propane-1-sulfonamide]
10 to 50	> 70	10 to 50	30 to 70	> 500	< 30	> 500	30 to 70	CCCS(=O)(=O)Nc1cccc(-c2cn(-c3ccc(C4CCN(CC5CCN(c6ccc(C7CCC(=O)NC7=O)cc6)CC5)CC4)cc3)nc2-c2ccncc2)c1F (racemic) [Compound 25, Rac-N-{3-[1-(4-{1-[(1-{4-[(3R)-2,6-dioxopiperidin-3-yl]phenyl}piperidin-4-yl)methyl]piperidin-4-yl}phenyl)-3-(pyridin-4-yl)-1H-pyrazol-4-yl]-2-fluorophenyl}propane-1-sulfonamide]
< 10	> 70	10 to 50	30 to 70	10 to 50	30 to 70	< 10	30 to 70	CCN(C)S(=O)(=O)Nc1cccc(-c2nc(C(C)(C)C)sc2-c2ccnc(Nc3ccc(N4CCN(CC5CC6(C5)CN(c5ccc(C7CCC(=O)NC7=O)cn5)C6)CC4)cn3)n2)c1F (racemic) [Compound 30, Rac-(3R)-3-{6-[6-({4-[6-({4-[2-tert-butyl-4-(3-{[ethyl(methyl)sulfamoyl]amino}-2-fluorophenyl)-1,3-thiazol-5-yl]pyrimidin-2-yl}amino)pyridin-3-yl]piperazin-1-yl}methyl)-2-azaspiro[3.3]heptan-2-yl]pyridin-3-yl}piperidine-2,6-dione]
10 to 50	> 70	< 10	30 to 70	< 10	30 to 70	10 to 50	30 to 70	CCN(C)S(=O)(=O)Nc1cccc(-c2nc(C)sc2-c2ccnc(Nc3ccc(N4CCN(CC5(F)CCN(c6ccc(C7CCC(=O)NC7=O)cc6)CC5)CC4)cn3)n2)c1F (racemic) [Compound 33, Rac-(3S)-3-{4-[4-({4-[6-({4-[4-(3-{[ethyl(methyl)sulfamoyl]amino}-2-fluorophenyl)-2-methyl-1,3-thiazol-5-yl]pyrimidin-2-yl}amino)pyridin-3-yl]piperazin-1-yl}methyl)-4-fluoropiperidin-1-yl]phenyl}piperidine-2,6-dione]
